Reference: publication PMC12152147, “DDB1 engagement defines the selectivity of S656 analogs for cyclin K degradation over CDK inhibition” (EMBO Reports, 2025)
Where “and” joins values, the source holds several entries; their conditions need not be identical. Equal values may be shown once. Read-outs that look alike come from different tables or passages of the source.

Columns and labels:
primary AML specimens = assay: Dose-response assays in primary AML specimens (6 days, CellTiterGlo); format: cell-based, human; settings: Homo sapiens, 144 h, 6 days, read-out: IC50
Experimental: Freshly thawed primary AML specimens were used for chemical screens. Cryopreserved cells were thawed at 37 °C in IMDM containing 20% FBS and DNase I (100 μg/mL). Cells were resuspended in IMDM supplemented with 15% BIT (BSA, insulin, transferrin; StemCell Technologies), 100 ng/mL SCF, 50 ng/mL FLT3L, 20 ng/mL IL3, 20 ng/mL G-CSF, 10^−4 mol/L b-mercaptoethanol, gentamicin (50 μg/mL), ciprofloxacin (10 μg/mL), SR1 (500 nmol/L) and UM729 (500 nmol/L). Cells were plated in 384-well white plates, 5000 cells per well in 50 μL. Compounds were dissolved in DMSO, diluted in media immediately before use and added to seeded cells at the unique concentration of 1 μM. Control wells received DMSO (0.1%) only. Cell viability was evaluated after 6 days in culture using the CellTiterGlo assay according to the manufacturer’s instruction. Percentage of inhibition for dose response curves was calculated as 100 – (100 × (mean luminescence [compound]/mean luminescence [DMSO])). Dose response curves were generated using nonlinear regression in GraphPad Prism version.
Dose-response assays in primary AML specimens were performed as in chemical screen (see above) with the exception that compounds were tested in serial dilution (8 dilutions, 1:4, 10 μM down to 0.5 nM). Dose-response assays in OCI-AML5 cell line were conducted similarly with the following modifications: 300 cells per well were seeded in 50 μL of cell line media and cell viability was evaluated after 4 days in culture.

OCI-AML5 cells = assay: Dose-response proliferative assay in OCI-AML5 (4 days, CellTiterGlo); format: cell-based, H. sapiens; settings: Homo sapiens, OCI-AML-5, OCI-AML5 cells; read-out: IC50 in AML5
In short: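 Viability assessed after 4 days of compound exposure at 37 °C, 5% CO2. Compounds tested as 8 dilutions (1:4, 10 μM to 0.5 nM) on 300 OCI-AML5 cells/well grown in αMEM with 10% heat-inactivated FBS and 10 ng/mL GM-CSF.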

cyclin KeGFP = assay: Cyclin KeGFP reporter system (eGFP/mCherry MFI by flow cytometry);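 as to % degradation cyclin K-eGFP: 10 μM compound for 3 h relative to DMSO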; format: cell-based, H. sapiens
In short: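 Degradation read as eGFP-to-mCherry MFI ratio relative to DMSO controls, from flow cytometry of the selected G7 clone of OCI-AML5 cells transduced with the cyclin KeGFP reporter.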

CDK1 = target: T1, CDK1 (Homo sapiens, UniProt P06493); assay: CDK1 in vitro kinase activity, single concentration 1 μM; format: biochemical; settings: single concentration 1 μM
T1 construct: purchased BPS Bioscience 79597
T1 sequence (P06493 whole entry): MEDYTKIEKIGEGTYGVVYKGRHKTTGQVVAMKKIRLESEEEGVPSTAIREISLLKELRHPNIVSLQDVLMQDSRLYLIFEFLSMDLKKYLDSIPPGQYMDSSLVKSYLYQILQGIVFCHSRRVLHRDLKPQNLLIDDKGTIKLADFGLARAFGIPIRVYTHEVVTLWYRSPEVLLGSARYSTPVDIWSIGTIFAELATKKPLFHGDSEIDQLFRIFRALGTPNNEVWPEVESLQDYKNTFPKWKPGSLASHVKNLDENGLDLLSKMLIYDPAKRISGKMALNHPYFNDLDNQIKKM
T1 sequence (P14635 whole entry partner): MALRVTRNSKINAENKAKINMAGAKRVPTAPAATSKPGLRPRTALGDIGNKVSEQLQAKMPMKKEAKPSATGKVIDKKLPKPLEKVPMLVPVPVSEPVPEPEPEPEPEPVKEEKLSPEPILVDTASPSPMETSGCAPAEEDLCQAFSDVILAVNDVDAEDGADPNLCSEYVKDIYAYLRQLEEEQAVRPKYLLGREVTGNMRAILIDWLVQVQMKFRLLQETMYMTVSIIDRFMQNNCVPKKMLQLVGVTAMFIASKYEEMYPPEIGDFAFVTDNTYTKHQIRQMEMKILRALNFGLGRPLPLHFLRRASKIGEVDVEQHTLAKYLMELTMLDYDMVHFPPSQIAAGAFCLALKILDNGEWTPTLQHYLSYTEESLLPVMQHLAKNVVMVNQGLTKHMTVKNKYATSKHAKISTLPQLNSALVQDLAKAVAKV
Experimental: (§1) Kinase activity was assessed using the kinase assay kits from BPS Bioscience for CDK1, CDK9 and CDK12 with Kinase Glo MAX in duplicates. Compounds were tested at a single concentration of 1 μM for CDK1 and CDK9 activity, and in a dilution ranging from 0.64 nM to 50 μM for CDK12 activity. Chemiluminescence was read using the Neo Synergy BioTek plate reader.

CDK9/CyclinT = target: T2, CDK9/CyclinT (Homo sapiens, UniProt P50750); assay: CDK9/CyclinT in vitro kinase activity, single concentration 1 μM; format: biochemical; settings: single concentration 1 μM
T2 construct: purchased BPS Bioscience 79628
T2 sequence (P50750 whole entry): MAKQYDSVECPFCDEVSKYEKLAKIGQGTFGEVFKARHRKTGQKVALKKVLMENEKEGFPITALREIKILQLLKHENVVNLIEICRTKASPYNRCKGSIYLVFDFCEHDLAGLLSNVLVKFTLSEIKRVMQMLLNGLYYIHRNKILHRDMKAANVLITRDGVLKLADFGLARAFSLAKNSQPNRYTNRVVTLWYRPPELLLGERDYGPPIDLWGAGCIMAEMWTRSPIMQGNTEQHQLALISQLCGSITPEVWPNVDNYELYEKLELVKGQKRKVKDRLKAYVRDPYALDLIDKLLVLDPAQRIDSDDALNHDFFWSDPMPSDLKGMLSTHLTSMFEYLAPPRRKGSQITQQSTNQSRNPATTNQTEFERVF
T2 sequence (O60563 whole entry partner): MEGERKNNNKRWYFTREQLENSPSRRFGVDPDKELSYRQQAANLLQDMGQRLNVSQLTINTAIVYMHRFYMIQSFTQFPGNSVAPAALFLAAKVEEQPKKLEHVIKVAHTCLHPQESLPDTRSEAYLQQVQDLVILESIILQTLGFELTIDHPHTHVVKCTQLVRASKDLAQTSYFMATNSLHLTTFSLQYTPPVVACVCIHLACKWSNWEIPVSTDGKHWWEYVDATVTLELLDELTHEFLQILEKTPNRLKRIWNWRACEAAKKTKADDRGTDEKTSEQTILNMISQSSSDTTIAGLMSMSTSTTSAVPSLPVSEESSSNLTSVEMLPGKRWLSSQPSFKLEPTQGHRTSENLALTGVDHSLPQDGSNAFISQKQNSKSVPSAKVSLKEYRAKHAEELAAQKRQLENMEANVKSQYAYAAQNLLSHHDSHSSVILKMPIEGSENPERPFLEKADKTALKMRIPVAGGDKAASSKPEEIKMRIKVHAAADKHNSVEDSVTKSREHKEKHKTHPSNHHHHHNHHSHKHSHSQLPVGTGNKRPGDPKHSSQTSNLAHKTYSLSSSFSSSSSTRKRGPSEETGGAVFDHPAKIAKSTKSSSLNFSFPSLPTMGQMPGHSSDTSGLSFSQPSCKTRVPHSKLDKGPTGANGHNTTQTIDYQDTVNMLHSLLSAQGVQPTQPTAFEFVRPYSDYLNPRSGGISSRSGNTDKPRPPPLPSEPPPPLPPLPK
Experimental: as §1

[1] = test system: OCI-AML5 cells expressing shRNAs targeting CDK1, 2, 4, 7, 9, cyclin K; assay: Dose response in OCI-AML5 expressing shRNAs targeting CDK1, 2, 4, 7, 9, cyclin K or control; format: cell-based, H. sapiens
[2] = test system: OCI-AML5 cells expressing shRNA targeting CUL4A or CUL4B; assay: Dose response in OCI-AML5 expressing shRNAs targeting CUL4A, CUL4B or control; format: cell-based, H. sapiens

CC(C)(C)c1cnc(CSc2cnc(NC(=O)C3CCNCC3)s2)o1 [SNS-032, N-[5-[[[5-(1,1-dimethylethyl)-2-oxazolyl]methyl]thio]-2-thiazolyl]-4-piperidinecarboxamide]
IC50 (primary AML specimens; primary AML specimen 03H109): 97.3 nM | IC50 (primary AML specimens; primary AML specimen 04H055): 85.7 nM | IC50 (primary AML specimens; primary AML specimen 04H096): 118 nM | IC50 (primary AML specimens; primary AML specimen 04H138): 101 nM | IC50 (primary AML specimens; primary AML specimen 05H113): 153 nM | IC50 (primary AML specimens; primary AML specimen 05H149): 547 nM | IC50 (primary AML specimens; primary AML specimen 05H193): 164 nM | IC50 (primary AML specimens; primary AML specimen 06H088): 217 nM | IC50 (primary AML specimens; primary AML specimen 06H117): 134 nM | IC50 (primary AML specimens; primary AML specimen 06H151): 135 nM | IC50 (primary AML specimens; primary AML specimen 07H003): 94.5 nM | IC50 (primary AML specimens; primary AML specimen 07H131): 512 nM | IC50 (primary AML specimens; primary AML specimen 07H144): 165 nM | IC50 (primary AML specimens; primary AML specimen 07H155): 231 nM | IC50 (primary AML specimens; primary AML specimen 08H018): 618 nM | IC50 (primary AML specimens; primary AML specimen 08H021): 90.9 nM | IC50 (primary AML specimens; primary AML specimen 08H056): 79.4 nM | IC50 (primary AML specimens; primary AML specimen 08H063): 146 nM | IC50 (primary AML specimens; primary AML specimen 08H085): 309 nM | IC50 (primary AML specimens; primary AML specimen 08H108): 70.8 nM | IC50 (primary AML specimens; primary AML specimen 08H118): 291 nM | IC50 (primary AML specimens; primary AML specimen 09H016): 244 nM | IC50 (primary AML specimens; primary AML specimen 09H070): 123 nM | IC50 (primary AML specimens; primary AML specimen 10H014): 563 nM | IC50 (primary AML specimens; primary AML specimen 10H046): 306 nM | IC50 (primary AML specimens; primary AML specimen 10H107): 324 nM | IC50 (primary AML specimens; primary AML specimen 10H127): 71.5 nM | IC50 (primary AML specimens; primary AML specimen 10H161): 97.5 nM | IC50 (primary AML specimens; primary AML specimen 10H174): 211 nM | IC50 (primary AML specimens; primary AML specimen 11H008): 161 nM | IC50 (primary AML specimens; primary AML specimen 11H019): 214 nM | IC50 (primary AML specimens; primary AML specimen 11H170): 523 nM | IC50 (primary AML specimens; primary AML specimen 11H217): 74 nM | IC50 (primary AML specimens; primary AML specimen 11H232): 299 nM | IC50 (primary AML specimens; primary AML specimen 12H033): 280 nM | IC50 (primary AML specimens; primary AML specimen 12H055): 183 nM | IC50 (primary AML specimens; primary AML specimen 12H148): 208 nM | IC50 (primary AML specimens; primary AML specimen 13H053): 563 nM | IC50 (primary AML specimens; primary AML specimen 15H045): 256 nM | IC50 (primary AML specimens; primary AML specimen 17H065): 2500 nM | IC50 (OCI-AML5 cells): 47 nM | MFI of cyclin KeGFP over mCherry (cyclin KeGFP; OCI-AML5 G7 clone, 3 h, 10 μM, normalized to DMSO (=100)): 111.9 and 100.6 and 100.2 and 98.8 and 97.9 | % degradation cyclin K-eGFP (cyclin KeGFP; cyclin K-eGFP reporter): 0% | inhibition at 1 µM (CDK1): 77% | inhibition at 1 µM (CDK9/CyclinT): 63% | IC50 ([1]; Homo sapiens, OCI-AML-5, 96 h, OCI-AML5, 4 days, read-out: IC50, sh CDK1): 23.3 nM | IC50 ([1]; Homo sapiens, OCI-AML-5, 96 h, OCI-AML5, 4 days, read-out: IC50, sh ctrl): 37.4 nM | IC50 ([1]; Homo sapiens, OCI-AML-5, 96 h, read-out: IC50, sh CDK7): 24.5 nM | IC50 ([1]; OCI-AML5, 4 days, read-out: IC50, sh CDK1): 46.6 nM and 42 nM | IC50 ([1]; OCI-AML5, 4 days, read-out: IC50, sh ctrl): 47.4 nM and 50 nM | Class ([1]; class from shRNA IC50 profile and cyclin K-eGFP degradation): 2 | IC50 ([1]; read-out: IC50, sh CDK7): 41 nM | potency upon CUL4A or CUL4B downregulation (for SNS-032, THZ531 also DDB1 depletion) ([2]; OCI-AML5, 4 days): remained unaffected | Ratio shCUL4A/shCTRL ([2]; ratio of IC50 in shCUL4A vs shCTRL OCI-AML5 cells): 1.01
